The values that follow come from ChEMBL document CHEMBL5143607, “Discovery and structure-activity relationships of a novel oxazolidinone class of bacterial type II topoisomerase inhibitors” (Bioorg Med Chem Lett, 2022).

≈ marks a conversion by molar mass, not a printed value.

One may read the MIC as the smallest concentration in the dilution series that meets the test's criterion for growth inhibition. As usually defined, the IC50 is the point on the concentration scale where inhibition reaches its midpoint. The term inhibition denotes the drop in the measured response relative to a control, in per cent. A lower inhibition goes with a weak effect. By logD is commonly meant lipophilicity at a set pH, counting ionised and neutral species. Read a high logD as a more lipophilic compound.

hERG (KCNH2), sequence (Q12809 whole entry): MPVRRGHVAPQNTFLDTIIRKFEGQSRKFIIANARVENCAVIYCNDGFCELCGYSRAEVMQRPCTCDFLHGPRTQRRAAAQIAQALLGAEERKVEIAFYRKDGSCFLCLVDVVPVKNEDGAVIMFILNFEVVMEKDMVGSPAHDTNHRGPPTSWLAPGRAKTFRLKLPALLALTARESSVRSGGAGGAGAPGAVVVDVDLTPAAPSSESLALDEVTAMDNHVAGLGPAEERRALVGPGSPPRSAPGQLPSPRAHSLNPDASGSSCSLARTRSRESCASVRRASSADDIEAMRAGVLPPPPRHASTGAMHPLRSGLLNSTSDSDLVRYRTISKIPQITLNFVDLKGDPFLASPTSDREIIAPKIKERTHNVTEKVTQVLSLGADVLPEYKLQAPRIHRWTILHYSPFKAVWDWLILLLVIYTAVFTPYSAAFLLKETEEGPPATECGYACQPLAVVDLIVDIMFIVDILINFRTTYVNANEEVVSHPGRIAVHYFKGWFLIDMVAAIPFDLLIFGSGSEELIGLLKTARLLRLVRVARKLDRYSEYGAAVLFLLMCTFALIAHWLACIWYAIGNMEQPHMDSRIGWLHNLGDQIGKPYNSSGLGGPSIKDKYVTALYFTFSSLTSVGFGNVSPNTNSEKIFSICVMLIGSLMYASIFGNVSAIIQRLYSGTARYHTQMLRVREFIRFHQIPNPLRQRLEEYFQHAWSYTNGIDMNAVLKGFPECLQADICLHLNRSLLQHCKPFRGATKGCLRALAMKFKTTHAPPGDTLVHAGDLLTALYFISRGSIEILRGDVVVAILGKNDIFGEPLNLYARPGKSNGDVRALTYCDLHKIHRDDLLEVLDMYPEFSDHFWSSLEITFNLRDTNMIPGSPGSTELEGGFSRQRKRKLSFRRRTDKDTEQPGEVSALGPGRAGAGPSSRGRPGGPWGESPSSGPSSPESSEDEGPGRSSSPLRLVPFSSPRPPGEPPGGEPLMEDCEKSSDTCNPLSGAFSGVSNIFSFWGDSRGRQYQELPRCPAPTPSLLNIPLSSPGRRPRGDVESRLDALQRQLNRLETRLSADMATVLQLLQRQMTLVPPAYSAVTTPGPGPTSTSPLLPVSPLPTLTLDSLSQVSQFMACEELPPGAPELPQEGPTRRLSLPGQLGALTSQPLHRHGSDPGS

One data set has as its system Pseudomonas aeruginosa. The data set is described as follows: Antibacterial activity against Pseudomonas aeruginosa ATCC 27853 assessed as bacterial growth inhibition by CLSI protocol based assay. Format: functional.
Details: not given
With `COc1ncc2ccc(=O)n(CCN[C@H]3CC[C@H]4[C@H](C3)OC(=O)N4c3ccc4c(n3)NC(=O)CO4)c2n1`, the MIC is more than 64 µg/mL.

Regarding `N#Cc1ccc2ccc(=O)n(CCCN[C@H]3CC[C@H]4[C@H](C3)OC(=O)N4c3ccc4c(n3)NC(=O)CO4)c2c1`, the MIC came to 1 µg/mL (≈ 1.94 µM).

In the case of `COc1ccc2ncc(=O)n(CCN[C@H]3CC[C@H]4[C@H](C3)OC(=O)N4c3ccc4c(n3)NC(=O)CO4)c2n1`, the MIC is 4 µg/mL (≈ 7.88 µM).

For the molecule `COc1cc2c(ccc(=O)n2CCN[C@H]2CC[C@H]3[C@H](C2)OC(=O)N3c2ccc3c(n2)NC(=O)CO3)cn1`, the MIC came out at 16 µg/mL (≈ 31.6 µM).

Tested on in another data set: not listed separately
The data set is described as follows: Cytotoxicity against human HepG2 cells assessed as reduction in cell viability for 24 hrs by Celltiter-Glo assay. Format: toxicity, cell-based.
Details: not given
Take `N#Cc1ccc2ccc(=O)n(CCCN[C@H]3CC[C@H]4[C@H](C3)OC(=O)N4c3ccc4c(n3)NC(=O)CO4)c2c1`: the IC50 at 24 h came to 55 µg/mL (≈ 107 µM).

As to `COc1ccc2ncc(=O)n(CCN[C@H]3CC[C@H]4[C@H](C3)OC(=O)N4c3ccc4c(n3)NC(=O)CO4)c2n1`, the IC50 at 24 h was more than 64 µg/mL.

A further data set has as its system Acinetobacter baumannii. Nature of the data set: Antibacterial activity against Acinetobacter baumannii NCTC 13420 assessed as bacterial growth inhibition by CLSI protocol based assay. Type of data set: functional.
Details: not given
Consider `COc1ncc2ccc(=O)n(CCN[C@H]3CC[C@H]4[C@H](C3)OC(=O)N4c3ccc4c(n3)NC(=O)CO4)c2n1`, for which the MIC came out at 3.2 µg/mL (≈ 6.31 µM).

Turning to `N#Cc1ccc2ccc(=O)n(CCCN[C@H]3CC[C@H]4[C@H](C3)OC(=O)N4c3ccc4c(n3)NC(=O)CO4)c2c1`, the minimum inhibitory concentration (MIC) amounted to 0.12 µg/mL (≈ 0.233 µM).

Turning to `COc1ccc2ncc(=O)n(CCN[C@H]3CC[C@H]4[C@H](C3)OC(=O)N4c3ccc4c(n3)NC(=O)CO4)c2n1`, the MIC worked out at 0.06 µg/mL (≈ 0.118 µM).

As to `COc1cc2c(ccc(=O)n2CCN[C@H]2CC[C@H]3[C@H](C2)OC(=O)N3c2ccc3c(n2)NC(=O)CO3)cn1`, the MIC was determined as 0.5 µg/mL (≈ 0.987 µM).

For the next data set, the target named is Voltage-gated inwardly rectifying potassium channel KCNH2 (Homo sapiens, UniProt Q12809). Nature of the data set: Inhibition of human ERG by Ionworks electrophysiology assay. Format: toxicity.
Voltage-gated inwardly rectifying potassium channel KCNH2, sequence (Q12809 whole entry): as above
Details: not given
Background: Patch clamp records ionic current or voltage across a cell membrane.
In turn, `N#Cc1ccc2ccc(=O)n(CCCN[C@H]3CC[C@H]4[C@H](C3)OC(=O)N4c3ccc4c(n3)NC(=O)CO4)c2c1` registered an IC50 of 7 µM.

The molecule `COc1ccc2ncc(=O)n(CCN[C@H]3CC[C@H]4[C@H](C3)OC(=O)N4c3ccc4c(n3)NC(=O)CO4)c2n1` showed an IC50 of 7 µM.

A further data set concerns Escherichia coli. Nature of the data set: Antibacterial activity against Escherichia coli W4573 assessed as bacterial growth inhibition by CLSI protocol based assay. Type of data set: functional.
Details: not given
As for `COc1ncc2ccc(=O)n(CCN[C@H]3CC[C@H]4[C@H](C3)OC(=O)N4c3ccc4c(n3)NC(=O)CO4)c2n1`, the MIC was found to be 32 µg/mL (≈ 63.1 µM).

`N#Cc1ccc2ccc(=O)n(CCCN[C@H]3CC[C@H]4[C@H](C3)OC(=O)N4c3ccc4c(n3)NC(=O)CO4)c2c1`: the MIC was 0.06 µg/mL (≈ 0.117 µM).

Regarding `COc1ccc2ncc(=O)n(CCN[C@H]3CC[C@H]4[C@H](C3)OC(=O)N4c3ccc4c(n3)NC(=O)CO4)c2n1`, the MIC was 0.25 µg/mL (≈ 0.493 µM).

Consider `COc1cc2c(ccc(=O)n2CCN[C@H]2CC[C@H]3[C@H](C2)OC(=O)N3c2ccc3c(n2)NC(=O)CO3)cn1`, for which the MIC turned out to be 2 µg/mL (≈ 3.95 µM).

The subject of the next data set is Klebsiella pneumoniae. Nature of the data set: Antibacterial activity against Klebsiella pneumoniae ATCC 700603 assessed as bacterial growth inhibition by CLSI protocol based assay. Type of data set: functional.
Details: not given
Turning to `COc1ncc2ccc(=O)n(CCN[C@H]3CC[C@H]4[C@H](C3)OC(=O)N4c3ccc4c(n3)NC(=O)CO4)c2n1`, the minimum inhibitory concentration (MIC) is more than 64 µg/mL.

For `N#Cc1ccc2ccc(=O)n(CCCN[C@H]3CC[C@H]4[C@H](C3)OC(=O)N4c3ccc4c(n3)NC(=O)CO4)c2c1`, the MIC was 2 µg/mL (≈ 3.89 µM).

Regarding `COc1ccc2ncc(=O)n(CCN[C@H]3CC[C@H]4[C@H](C3)OC(=O)N4c3ccc4c(n3)NC(=O)CO4)c2n1`, the MIC amounted to 4 µg/mL (≈ 7.88 µM).

Consider `COc1cc2c(ccc(=O)n2CCN[C@H]2CC[C@H]3[C@H](C2)OC(=O)N3c2ccc3c(n2)NC(=O)CO3)cn1`, for which the minimal inhibitory concentration (MIC) was 32 µg/mL (≈ 63.2 µM).

A further data set addresses hERG (KCNH2) (Homo sapiens, UniProt Q12809). The data set is described as follows: Inhibition of human ERG at 100 uM by Ionworks electrophysiology assay. Type of data set: toxicity.
Details: not given
The molecule `COc1cc2c(ccc(=O)n2CCN[C@H]2CC[C@H]3[C@H](C2)OC(=O)N3c2ccc3c(n2)NC(=O)CO3)cn1` registered an inhibition at 100 µM of 83%.

Another data set deals with Escherichia coli. Nature of the data set: Antibacterial activity against Escherichia coli N43 assessed as bacterial growth inhibition by CLSI protocol based assay. Type of data set: functional.
Details: not given
Take `COc1ncc2ccc(=O)n(CCN[C@H]3CC[C@H]4[C@H](C3)OC(=O)N4c3ccc4c(n3)NC(=O)CO4)c2n1`: the MIC was 1 µg/mL (≈ 1.97 µM).

In the case of `N#Cc1ccc2ccc(=O)n(CCCN[C@H]3CC[C@H]4[C@H](C3)OC(=O)N4c3ccc4c(n3)NC(=O)CO4)c2c1`, the MIC was not above 0.016 µg/mL.

As to `COc1ccc2ncc(=O)n(CCN[C@H]3CC[C@H]4[C@H](C3)OC(=O)N4c3ccc4c(n3)NC(=O)CO4)c2n1`, the MIC is not above 0.008 µg/mL.

For `COc1cc2c(ccc(=O)n2CCN[C@H]2CC[C@H]3[C@H](C2)OC(=O)N3c2ccc3c(n2)NC(=O)CO3)cn1`, the MIC amounted to 0.06 µg/mL (≈ 0.118 µM).

Tested on in another data set: not listed separately
The data set is described as follows: Lipophilicity, logD of the compound by shake flask assay. Type of data set: physicochemical. Conditions: octanol/water.
The molecule `COc1ncc2ccc(=O)n(CCN[C@H]3CC[C@H]4[C@H](C3)OC(=O)N4c3ccc4c(n3)NC(=O)CO4)c2n1` had a logD of 1.79.

`N#Cc1ccc2ccc(=O)n(CCCN[C@H]3CC[C@H]4[C@H](C3)OC(=O)N4c3ccc4c(n3)NC(=O)CO4)c2c1`: the logD came out at 1.03.

`COc1ccc2ncc(=O)n(CCN[C@H]3CC[C@H]4[C@H](C3)OC(=O)N4c3ccc4c(n3)NC(=O)CO4)c2n1` came in with a logD of 1.6.

Turning to `COc1cc2c(ccc(=O)n2CCN[C@H]2CC[C@H]3[C@H](C2)OC(=O)N3c2ccc3c(n2)NC(=O)CO3)cn1`, the logD is 1.69.

The test system of the next data set is Staphylococcus aureus. Nature of the data set: Antibacterial activity against Staphylococcus aureus ATCC 29213 assessed as bacterial growth inhibition by CLSI protocol based assay. Format: functional.
Details: not given
On to `COc1ncc2ccc(=O)n(CCN[C@H]3CC[C@H]4[C@H](C3)OC(=O)N4c3ccc4c(n3)NC(=O)CO4)c2n1`, for which the MIC is 2 µg/mL (≈ 3.94 µM).

With `N#Cc1ccc2ccc(=O)n(CCCN[C@H]3CC[C@H]4[C@H](C3)OC(=O)N4c3ccc4c(n3)NC(=O)CO4)c2c1`, the minimum inhibitory concentration (MIC) turned out to be 0.06 µg/mL (≈ 0.117 µM).

For the molecule `COc1ccc2ncc(=O)n(CCN[C@H]3CC[C@H]4[C@H](C3)OC(=O)N4c3ccc4c(n3)NC(=O)CO4)c2n1`, the MIC stood at 0.015 µg/mL (≈ 0.0296 µM).

Regarding `COc1cc2c(ccc(=O)n2CCN[C@H]2CC[C@H]3[C@H](C2)OC(=O)N3c2ccc3c(n2)NC(=O)CO3)cn1`, the minimum inhibitory concentration (MIC) turned out to be 0.5 µg/mL (≈ 0.987 µM).
